ChEMBL document CHEMBL6103545, “Discovery of GS-2278, a Potent and Selective LPAR1 Antagonist for the Treatment of Idiopathic Pulmonary Fibrosis” (J Med Chem, 2025)
pEC50, pIC50: −log10 of the molar value.

Tests used:
[1] = molecular target: T1, Lysophosphatidic acid receptor 1 (Homo sapiens, UniProt Q92633); experiment: Antagonist activity at human LPA1 receptor expressed in HEK293 cells assessed as beta-arrestin2 effector recruitment incubated for 10 mins by BRET assay; type: functional, cell-based
T1 sequence (Q92633 whole entry): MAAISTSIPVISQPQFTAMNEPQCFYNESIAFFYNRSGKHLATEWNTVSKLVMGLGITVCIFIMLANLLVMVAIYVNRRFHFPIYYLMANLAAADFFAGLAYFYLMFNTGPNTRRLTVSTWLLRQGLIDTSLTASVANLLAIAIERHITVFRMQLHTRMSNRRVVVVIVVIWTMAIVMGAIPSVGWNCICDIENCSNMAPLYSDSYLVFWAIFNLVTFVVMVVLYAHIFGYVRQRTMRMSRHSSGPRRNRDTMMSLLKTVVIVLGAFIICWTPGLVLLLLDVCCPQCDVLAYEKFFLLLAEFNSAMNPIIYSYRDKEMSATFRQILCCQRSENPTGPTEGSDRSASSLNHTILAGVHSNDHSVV

[2] = Unbound drug concentration in CD-1 mouse brain at 2 uM incubated for 5 hrs by LC-MS analysis; type: ADME, tissue-based
[3] = molecular target: Lysophosphatidic acid receptor 5 (Homo sapiens, UniProt Q9H1C0); experiment: Antagonist activity at human LPA5 receptor overexpressed in CHO cells pre-incubated for 1 hr followed by LPA addition by fluorescence based FLIPR calcium assay; type: functional, cell-based
Chain of Lysophosphatidic acid receptor 5 (Q9H1C0 whole entry): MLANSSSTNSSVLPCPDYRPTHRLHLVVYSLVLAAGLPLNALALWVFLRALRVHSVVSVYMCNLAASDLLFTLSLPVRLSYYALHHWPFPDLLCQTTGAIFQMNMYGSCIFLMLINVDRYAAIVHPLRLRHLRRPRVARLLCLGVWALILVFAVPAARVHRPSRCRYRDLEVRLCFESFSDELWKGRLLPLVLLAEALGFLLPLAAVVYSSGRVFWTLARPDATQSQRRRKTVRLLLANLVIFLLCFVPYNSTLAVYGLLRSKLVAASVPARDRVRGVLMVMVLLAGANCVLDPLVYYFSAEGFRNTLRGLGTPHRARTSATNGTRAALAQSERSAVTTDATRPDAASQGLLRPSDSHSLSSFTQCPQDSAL

[4] = Volume of distribution in male Sprague-Dawley rat at 1 mg/kg, iv s measured after 24 hrs by LC/MS/MS analysis; type: ADME, organism-based; details: in vivo
[5] = Plasma protein binding in cynomolgus monkey assessed as unbound fraction at 2 uM incubated for 24 hrs by LC-MS analysis; type: ADME, cell-free, Macaca fascicularis
[6] = Toxicity in telemetry implanted Beagle dog CNS at 30 mg/kg/day, po measured upto 24 hrs by radiotelemetry based electroencephalogram analysis; type: organism-based, Canis lupus familiaris; details: in vivo
[7] = Apparent permeability across apical to basolateral side in cMDR1 knockout MDCK-II cells incubated upto 240 mins by RF-QToF analysis; type: ADME, cell-based, Canis lupus familiaris; details: dog
BCRP (human) = experiment: Apparent permeability from apical to basolateral side of human BCRP transfected MDCK cells measured after 20 min by LC/MS/MS analysis; type: ADME, cell-based, Canis lupus familiaris; details: dog
[8] = Metabolic stability in male Sprague-Dawley rat liver microsomes assessed as intrinsic clearance at 1 uM by LC/MS/MS analysis; type: ADME, Microsome; details: read-out: CLH (converted)
[9] = Apparent permeability from basolateral to apical side in human Caco-2 cells at 10 uM; type: ADME, cell-based
[10] = Mutagenicity in Salmonella typhimurium TA98 by Ames assay; type: toxicity; details: salmonella enterica subsp. enterica serovar typhimurium
[11] = Plasma protein binding in Beagle dog assessed as unbound fraction at 2 uM incubated for 24 hrs by LC-MS analysis; type: ADME, cell-free, Canis lupus familiaris
[12] = Toxicity in Beagle dog CNS at 30 mg/kg/day, po measured after 7 days by radiotelemetry; type: organism-based, Canis lupus familiaris; details: in vivo, 168 h, time 7 day
[13] = molecular target: T2, Solute carrier organic anion transporter family member 1B1 (Homo sapiens, UniProt Q9Y6L6); experiment: Inhibition of OATPB1P1 in human hepatocyte by LC-MS analysis; type: cell-based
T2 sequence (Q9Y6L6 whole entry): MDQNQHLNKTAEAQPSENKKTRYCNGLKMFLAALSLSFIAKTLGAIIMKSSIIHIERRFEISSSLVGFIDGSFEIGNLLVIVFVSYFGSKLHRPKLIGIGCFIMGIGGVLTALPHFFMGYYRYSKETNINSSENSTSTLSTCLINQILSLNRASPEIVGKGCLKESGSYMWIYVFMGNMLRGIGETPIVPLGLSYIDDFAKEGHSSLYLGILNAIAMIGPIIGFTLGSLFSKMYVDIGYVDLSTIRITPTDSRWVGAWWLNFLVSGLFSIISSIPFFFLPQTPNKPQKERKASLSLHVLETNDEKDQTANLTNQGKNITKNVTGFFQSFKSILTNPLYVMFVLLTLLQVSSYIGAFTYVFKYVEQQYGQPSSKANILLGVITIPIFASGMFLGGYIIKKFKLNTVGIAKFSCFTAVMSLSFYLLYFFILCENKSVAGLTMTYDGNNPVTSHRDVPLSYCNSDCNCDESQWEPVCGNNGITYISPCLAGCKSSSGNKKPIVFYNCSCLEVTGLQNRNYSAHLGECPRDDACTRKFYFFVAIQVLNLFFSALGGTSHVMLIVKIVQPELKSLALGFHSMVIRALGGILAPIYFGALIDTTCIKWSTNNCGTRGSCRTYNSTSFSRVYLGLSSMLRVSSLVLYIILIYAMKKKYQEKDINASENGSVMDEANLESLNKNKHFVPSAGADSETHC

[14] = Toxicity in Beagle dog CNS at 10 mg/kg/day, po measured after 28 days by radiotelemetry; type: organism-based, Canis lupus familiaris; details: in vivo, 672 h, time 28 day
[15] = molecular target: T1, Lysophosphatidic acid receptor 1; experiment: Antagonist activity at LPA1 receptor in human TWNT-4 cells pre-incubated for 1 hr followed by LPA stimulation and measured after 30 min in presence of 4% human serum albumin by MRTF-A assay; type: cell-based
Cytochrome P450 2C9 = Cytochrome P450 2C9 (Homo sapiens, UniProt P11712); experiment: Inhibition of CYP2C9 (unknown origin) using midazolam as substrate; type: ADME
Chain of Cytochrome P450 2C9 (P11712 whole entry): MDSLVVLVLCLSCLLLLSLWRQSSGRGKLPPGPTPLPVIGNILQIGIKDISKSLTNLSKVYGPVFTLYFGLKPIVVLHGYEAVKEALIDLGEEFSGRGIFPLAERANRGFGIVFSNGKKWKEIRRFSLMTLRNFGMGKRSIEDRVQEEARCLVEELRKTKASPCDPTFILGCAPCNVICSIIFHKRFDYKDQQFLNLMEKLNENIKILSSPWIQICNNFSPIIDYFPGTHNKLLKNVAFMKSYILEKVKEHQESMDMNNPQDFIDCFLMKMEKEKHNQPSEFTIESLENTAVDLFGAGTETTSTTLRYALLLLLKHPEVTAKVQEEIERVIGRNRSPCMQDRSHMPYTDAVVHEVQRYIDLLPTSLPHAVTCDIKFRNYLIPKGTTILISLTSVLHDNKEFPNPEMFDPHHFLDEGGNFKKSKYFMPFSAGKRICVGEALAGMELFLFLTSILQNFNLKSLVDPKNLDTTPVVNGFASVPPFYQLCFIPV

- pEC50 [1]: 6.87
- fraction unbound at 5 h, 2 µM [2]: 0.133
- pEC50 [3]: < 5.00
- Vd [4]: 0.8 L/kg
- fraction unbound at 24 h, 2 µM [5]: 0.24
- Papp A→B at 20 min (BCRP (human)): < 0.01 ×10⁻⁶ cm/s
- CLint scaled at 1 µM [8]: 16.3 mL/min/kg
- Papp B→A at 10 µM [9]: 17 ×10⁻⁶ cm/s
- fraction unbound at 24 h, 2 µM [11]: 0.095
- pIC50 [13]: 4.89
- pEC50 [15]: 7.47
- inhibition (INH) (Cytochrome P450 2C9): Not_active
Compound: C[C@@H](OC(=O)Nc1c(-c2ccc(NC(=O)c3cnc(C(F)(F)F)nc3)cn2)nnn1C)c1cc(F)cnc1F
- Activity [6]: Non-toxic
- Papp A→B at 4 h [7]: 11 ×10⁻⁶ cm/s
- Activity [10]: Non-toxic
- Activity [12]: Non-toxic
- Activity [14]: Non-toxic
